The numbers were not newly measured in patent US12472143B2, “Blend compositions for oral administration as a rapidly dissolving powder and/or suspension” (MARENDA PHARMACEUTICALS LLC, priority 2017, dated 2025), which cites them from elsewhere.

As for `CC(C)Cc1ccc(C(C)C(=O)O)cc1` (stereo not shown) [Ibuprofen], the solubility in water entry was “sparingly soluble”.
